From patent US8143421B2, “Broadspectrum substituted benzimidazole sulfonamide HIV protease inhibitors” (priority 2002, dated 2012)

Tests used:
mutant A = format: cell-based; settings: FR=IC50(mutant strain)/IC50(HIV-1 strain LAI)
Description: (§1) HIV- or mock-infected MT4 cells were incubated for five days in the presence of various concentrations of the inhibitor. […] Cell viability is measured by measuring the concentration of MTT, a yellow, water soluble tetrazolium dye that is converted to a purple, water insoluble formazan in the mitochondria of living cells only. Upon solubilization of the resulting formazan crystals with isopropanol, the absorbance of the solution is monitored at 540 nm. The values correlate directly to the number of living cells remaining in the culture at the completion of the five day incubation. The inhibitory activity of the compound was monitored on the virus-infected cells and was expressed as IC50 and IC90. These values represent the amount of the compound required to protect 50% and 90%, respectively, of the cells from the cytopathogenic effect of the virus. […] The selectivity index (SI) (ratio CC50/IC50) is an indication of the selectivity of the anti-HIV activity of the inhibitor. Wherever results are reported as e.g. pIC50 or pCC50 values, the result is expressed as the negative logarithm of the result expressed as IC50 or CC50 respectively.
(§2) Because of the increasing emergence of drug resistant HIV strains, the present compounds were tested for their potency against clinically isolated HIV strains harboring several mutations. […] The viral strains R13025, R13027, R13028, R13029, R13034, R13080, T13127 and R13363 contained mutations as indicated below in Table 3.
(§3) As a measure of the broad spectrum activity of the present compounds, the fold resistance (FR), defined as FR=IC50(mutant strain)/IC50(HIV-1 strain LAI), was determined.

mutant E = format: cell-based; settings: FR=IC50(mutant strain)/IC50(HIV-1 strain LAI)
Description: as §1, §2, §3

mutant F = assay: Antiviral spectrum, fold resistance towards mutant F; format: cell-based; settings: FR=IC50(mutant strain)/IC50(HIV-1 strain LAI)
Description: (§4) Because of the increasing emergence of drug resistant HIV strains, the present compounds were tested for their potency against clinically isolated HIV strains harboring several mutations. These mutations are associated with resistance to protease inhibitors and result in viruses that show various degrees of phenotypic cross-resistance to the currently commercially available drugs such as for instance saquinavir, ritonavir, nelfinavir, indinavir and amprenavir. The viral strains R13025, R13027, R13028, R13029, R13034, R13080, T13127 and R13363 contained mutations as indicated below in Table 3.

HIV-1 strain LAI = assay: Cellular anti-HIV assay, MT4 cells, MTT readout, wild type HIV-1 strain LAI; format: cell-based; settings: for pIC50 (LAI): Table 1, MT4 cells, five days, HIV-1 strain LAI; for WT (pIC50 against wild type HIV-LAI strain): Table 4
Description: The compounds of the present invention were examined for anti-viral activity in a cellular assay. […] The cellular assay was performed according to the following procedure.

mock-infected MT4 cells = assay: in vitro
Description: as §1, §3

mutant C = assay: Antiviral spectrum, fold resistance towards mutant C; format: cell-based; settings: FR=IC50(mutant strain)/IC50(HIV-1 strain LAI)
Description: as §4

mutant G = assay: Antiviral spectrum, fold resistance towards mutant G; format: cell-based; settings: FR=IC50(mutant strain)/IC50(HIV-1 strain LAI)
Description: as §4

mutant D = assay: Antiviral spectrum, fold resistance towards mutant D; format: cell-based; settings: FR=IC50(mutant strain)/IC50(HIV-1 strain LAI)
Description: as §4

mutant B = assay: Antiviral spectrum, fold resistance towards mutant B; format: cell-based; settings: FR=IC50(mutant strain)/IC50(HIV-1 strain LAI)
Description: as §4

[1] = pCC50 value as determined with mock transfected cells

| SMILES | FR value towards mutant A (mutant A) | FR towards mutant E (mutant E) | FR towards mutant F (mutant F) | pIC50 (LAI) (HIV-1 strain LAI) | WT (pIC50 against wild type HIV-LAI strain) (HIV-1 strain LAI) | Tox (pCC50) (mock-infected MT4 cells) | FR towards mutant C (mutant C) | FR towards mutant G (mutant G) | FR towards mutant D (mutant D) | Tox (pCC50) (mock-infected MT4 cells; [1]) | FR towards mutant B (mutant B) |
| --- | --- | --- | --- | --- | --- | --- | --- | --- | --- | --- | --- |
| COC(=O)Nc1nc2ccc(S(=O)(=O)N(CC(C)C)C[C@@H](O)[C@H](Cc3ccccc3)NC(=O)COc3c(C)cccc3C)cc2[nH]1 [Compound 6] | 2.9 | 1.6 | 10 | 8.6 | 8.6 | <4 | 2.7 | 60 | 2.1 | – | – |
| COC(=O)Nc1nc2ccc(S(=O)(=O)N(CC(C)C)C[C@@H](O)[C@H](Cc3ccccc3)NC(=O)c3ccc([N+](=O)[O-])cc3C)cc2[nH]1 [Compound 11] | 5.4 | 1.6 | 7.1 | 8.0 | 8.0 | – | 1.5 | 245 | 3.5 | <4 | 1.0 |
| COC(=O)Nc1nc2ccc(S(=O)(=O)N(CC(C)C)C[C@@H](O)[C@H](Cc3ccccc3)NC(=O)COc3c(C)cc(C#N)cc3C)cc2[nH]1 [Compound 12] | 5.5 | 9.5 | 49 | 7.8 | 7.8 | – | 9.5 | 89 | 7.9 | <4 | 2.1 |
| CC(C)CN(C[C@@H](O)[C@H](Cc1ccccc1)NC(=O)O[C@H]1CCOC1)S(=O)(=O)c1ccc2ncn(CCc3ccccc3)c2c1 [Compound 15] | – | 6.2 | 269 | 7.7 | 7.7 | – | 2.4 | 407 | 5.4 | 4.2 | 6.3 |
| COC(=O)Nc1nc2ccc(S(=O)(=O)N(CC(C)C)C[C@@H](O)[C@H](Cc3ccccc3)NC(=O)c3ccc(N)cc3C)cc2[nH]1 [Compound 22] | 0.74 | 0.72 | 0.69 | 7.4 | 7.4 | – | 1.1 | 4.3 | 0.71 | 4.1 | 0.78 |
| COc1ccc(C(=O)Nc2nc3ccc(S(=O)(=O)N(CC(C)C)C[C@@H](O)[C@H](Cc4ccccc4)NC(=O)COc4c(C)cccc4C)cc3[nH]2)cc1 [Compound 37] | 1.0 | 1.3 | 7.9 | 6.9 | 6.9 | – | 0.95 | 21 | 1.9 | – | 0.35 |
